From ChEMBL document CHEMBL6127056, “Novel mechanistic insights - A brand new Era for anti-HBV drugs” (Eur J Med Chem, 2024)
Values belong to the molecule of their own block, whether it stands above or below them. Residues, ends and D or L forms follow the SMILES beside them.

What was measured:
Hepatitis B virus [1] = test: Antiviral activity against HBV infected in human HePAD38 cells assessed as reduction in viral replication by qPCR analysis; assay type: functional, organism-based
Hepatitis B virus [2] = test: Antiviral activity against HBV infected in human HepG2-NTCP12 cells assessed as inhibition of viral replication; assay type: functional, organism-based
Hepatitis B virus [3] = test: Antiviral activity against HBV infected in human Primary hepatocytes assessed as reduction in HBV DNA level measured after 16 days by ELISA; conditions: Hepatocyte, 384 h
Hepatitis B virus [4] = test: Antiviral activity against Hepatitis B virus assessed as inhibition of HBV DNA replication; assay type: functional, organism-based
Hepatitis B virus [5] = test: Antiviral activity against HBV infected in human HepAD38 cells assessed as inhibition of viral replication; assay type: functional, organism-based
[6] = molecular target: T1, Hepatic sodium/bile acid cotransporter (Homo sapiens, UniProt Q14973); test: Inhibition of NTCP (unknown origin)
T1 sequence (Q14973 whole entry): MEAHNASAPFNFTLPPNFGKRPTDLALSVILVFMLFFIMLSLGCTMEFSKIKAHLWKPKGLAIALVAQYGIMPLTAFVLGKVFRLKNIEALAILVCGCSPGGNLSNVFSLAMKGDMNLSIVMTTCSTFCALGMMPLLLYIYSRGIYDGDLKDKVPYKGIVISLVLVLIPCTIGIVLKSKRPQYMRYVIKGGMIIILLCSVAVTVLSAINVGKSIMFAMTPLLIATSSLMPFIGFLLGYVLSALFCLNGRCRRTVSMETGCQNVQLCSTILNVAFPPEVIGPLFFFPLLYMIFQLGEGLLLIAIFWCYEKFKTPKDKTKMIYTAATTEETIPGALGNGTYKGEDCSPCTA

Hepatitis B virus [7] = test: Antiviral activity against HBV infected in human HepG2.2.15 cells assessed as reduction in viral DNA levels incubated for 6 days by PCR analysis; assay type: functional, organism-based; conditions: HepG2.2.15, 144 h
[8] = molecular target: T1, Hepatic sodium/bile acid cotransporter; test: Inhibition of NTCP (unknown origin) stably transfected in HEK293 cells; assay type: cell-based
HepG2 2.2.15 = test: Cytotoxicity against human HepG2.2.15 cells assessed as reduction in cell viability by CellTiter-Blue reagent based analysis; assay type: functional
Hepatitis B virus [9] = test: Antiviral activity against HBV infected in human HepG2.117 cells assessed as reduction in intracellular DNA level by RT-qPCR analysis; assay type: functional, organism-based
[10] = Inhibition of HBV RNA polymerase; parameters: species or system Hepatitis B virus
Hepatitis B virus [11] = test: Antiviral activity against HBV infected in human HepDES19 cells assessed as inhibition of extracellular HBV DNA by qPCR analysis; assay type: functional, organism-based
Hepatitis B virus [12] = test: Antiviral activity against HBV infected in human Primary hepatocyte assessed as reduction in HBV replication; assay type: functional, organism-based
Hepatitis B virus [13] = test: Antiviral activity against HBV infected in human HepG2-hNTCP cells assessed as reduction in HBV DNA replication by qRT-PCR analysis; assay type: functional, organism-based
[14] = molecular target: T2, NAD-dependent protein deacetylase sirtuin-2 (Homo sapiens, UniProt Q8IXJ6); test: Inhibition of SIRT2 (unknown origin)
T2 sequence (Q8IXJ6 whole entry): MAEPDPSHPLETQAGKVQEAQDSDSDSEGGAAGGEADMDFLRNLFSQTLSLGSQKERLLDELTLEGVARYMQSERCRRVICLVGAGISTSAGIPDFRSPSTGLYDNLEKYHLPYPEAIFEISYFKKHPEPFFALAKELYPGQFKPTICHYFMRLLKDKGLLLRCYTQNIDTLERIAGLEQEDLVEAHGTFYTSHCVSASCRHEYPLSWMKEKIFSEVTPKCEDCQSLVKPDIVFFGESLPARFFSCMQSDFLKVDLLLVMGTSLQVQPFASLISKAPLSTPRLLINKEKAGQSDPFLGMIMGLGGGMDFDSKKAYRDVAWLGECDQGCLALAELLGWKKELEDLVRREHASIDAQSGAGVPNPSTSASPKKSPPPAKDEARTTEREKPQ

[15] = molecular target: Triosephosphate isomerase (Homo sapiens, UniProt P60174); test: Inhibition of TPI1 (unknown origin)
Sequence of Triosephosphate isomerase (P60174 whole entry): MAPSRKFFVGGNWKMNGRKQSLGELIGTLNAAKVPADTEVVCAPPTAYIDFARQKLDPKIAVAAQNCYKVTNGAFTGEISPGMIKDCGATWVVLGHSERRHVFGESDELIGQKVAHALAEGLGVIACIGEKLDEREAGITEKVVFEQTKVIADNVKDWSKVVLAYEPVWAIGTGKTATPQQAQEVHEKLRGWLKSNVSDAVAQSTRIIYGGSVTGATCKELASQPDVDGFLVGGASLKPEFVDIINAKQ

[16] = molecular target: Human immunodeficiency virus type 1 reverse transcriptase (Human immunodeficiency virus 1, UniProt Q72547); test: Inhibition of HIV-1 reverse transcriptase
Hepatitis B virus [17] = test: Antiviral activity against Hepatitis B virus ayw1 infected in human HepG2 2.2.15 cells assessed as reduction in viral DNA replication incubated for 6 days by qPCR analysis; assay type: functional, organism-based; conditions: ayw1, HepG2 2.2.15, 144 h

Compound: Cc1ccc2[nH]c(CCNc3nccc(-c4ccccn4)n3)nc2c1C
EC50 (Hepatitis B virus [4]): > 10000 nM

Compound: C=C(C)[C@@H]1CC[C@]2(C(=O)NCc3cn([C@H]4c5cc6c(cc5[C@H](c5cc(OC)c(OC)c(OC)c5)[C@H]5C(=O)OC[C@@H]54)OCO6)nn3)CC[C@@]3(C)[C@]4(C)CC[C@H]5C(C)(C)[C@@H](O)CC[C@]5(C)[C@H]4CC[C@]3(C)[C@@H]12
IC50 [6]: 790 nM

Compound: O=C(Nc1ccc(F)c(C(F)F)c1)C1c2ccccc2NCC1CN1CCC(F)(F)CC1 (stereo unspecified)
EC50 (Hepatitis B virus [7]): 100 nM

Compound: N#Cc1ccc(Cn2nc(-c3ccc(C(F)(F)F)nc3F)c3ccccc3c2=O)cc1
IC50 (HepG2 2.2.15): 200 nM

Compound: CC(C)OC(=O)[C@H](C)NP(=O)(OC[C@@]1(F)CO[C@@H](n2cnc3c(N)ncnc32)[C@@H]1CO)Oc1ccccc1 (stereo partly specified)
EC50 (Hepatitis B virus [9]): 80 nM

Compound: C[C@]12CC[C@@H]3c4ccc(OC(=O)c5ccccc5)cc4CC[C@H]3[C@@H]1CC[C@@H]2O [ESTRADIOL BENZOATE]
IC50 [10]: 279000 nM

Compound: CCCCCCCc1cc(OC(=O)c2c(CCCCCCC)cc(O)cc2O[C@H]2O[C@@H](CO)[C@@H](O)[C@@H](O)[C@@H]2O)cc(O)c1C(=O)O
IC50 [15]: 2200 nM

Compound: Cc1cc(N)c(S(N)(=O)=O)cc1C(=O)Nc1cc(F)c(F)c(F)c1
EC50 (Hepatitis B virus [7]): 60 nM

Compound: Nc1ncnc2c1ncn2[C@@H]1OC[C@](F)(COP(=O)(O)OP(=O)(O)OP(=O)(O)O)[C@H]1CO
IC50 [16]: 320 nM

Compound: CCn1ccnc1-c1c(-c2ccccc2)ncn1CCCc1cccnc1
EC50 (Hepatitis B virus [4]): 10000 nM

Compound: C[C@]12CCCC[C@@H]1CC[C@@H]1[C@@H]2CC[C@]2(C)[C@@H]([C@H](O)CCc3ccc(F)cc3)CC[C@@H]12
IC50 [15]: 10600 nM

Compound: COC(=O)C1=C(C)NC(c2ncc(F)cc2F)=N[C@H]1c1ccc(F)cc1Cl
EC50 (Hepatitis B virus [17]): 23 nM

Compound: CCOC(=O)c1ccnc(CNCC(=O)N(CC)CCN(C)C)c1
EC50 (Hepatitis B virus [5]): 34 nM

Compound: O=C(NCc1ccc(-c2cccnc2)nc1)c1ccc2nccnc2c1
EC50 (Hepatitis B virus [4]): > 10000 nM

Second part, led by results:

EC50 (Hepatitis B virus [1]): 22 nM | EC50 (Hepatitis B virus [2]): 27 nM
Compound: CN1[C@H](C(=O)Nc2ccc(F)c(Cl)c2)C[C@H](c2ncc(-c3cn(C)cn3)s2)NS1(=O)=O
EC50 (Hepatitis B virus [3]): 41 nM

EC50 (Hepatitis B virus [5]): 15600 nM
Compound: Cc1cc(/N=N/c2ccc(S(=O)(=O)Nc3ccccn3)cc2)c(N)cc1O

IC50 [8]: 360 nM
Compound: CCC[C@@H]1NC(=O)[C@H](CC(C)C)N(C)C(=O)[C@H](CC(C)C)N(C)C(=O)CN(CCO)C(=O)[C@H](CC(C)C)N(C)C(=O)[C@@H](C)NC(=O)[C@H](CCC(N)=O)NC(=O)[C@H](CC(C)C)N(C)C(=O)[C@H](C(C)C)NC(=O)[C@H](CC(C)C)N(C)C(=O)CN(C)C1=O (HELM PEPTIDE1{[meL].[meL].[Nva].[Sar].[meL].V.[meL].Q.[dA].[meL].[O=C(CN(CCO)[*:1])[*:2]]}$PEPTIDE1,PEPTIDE1,1:R1-11:R2$$$V2.0)

EC50 (Hepatitis B virus [7]): 500 nM
Compound: O=C(Nc1ccc(F)c(Cl)c1)c1cc(S(=O)(=O)NC2CCCC2)cc2c1OCCO2

EC50 (Hepatitis B virus [11]): 100 nM
Compound: CCOC(=O)C1=C(CN2CCOCC2)NC(c2nccs2)=NC1c1ccc(F)cc1Br (stereo unspecified)

EC50 (Hepatitis B virus [13]): 5130 nM
Compound: COc1cc2c(O[C@@H]3OC[C@](O)(CO[C@@H]4OC[C@@H](O)[C@H](O)[C@H]4O)[C@H]3O[C@@H]3OC[C@H](O)[C@H](O)[C@H]3O)c3c(c(-c4ccc5c(c4)OCO5)c2cc1OC)C(=O)OC3 [CILIATOSIDE A]
EC50 (Hepatitis B virus [12]): 3360 nM

IC50 [14]: < 620 nM
Compound: Cc1cn(-c2ccc3c(c2)CN(c2ncc(Cc4ccc(-n5cccn5)cc4)s2)CC3)c(C)n1

EC50 (Hepatitis B virus [4]): > 10000 nM
Compound: CCOC(=O)c1cc(-c2cc(C(=O)OCC)c3ccccc3n2)nc2ccccc12

IC50 [15]: 610 nM
Compound: CC[C@H](C)C[C@H](C)C(=O)O[C@]1(C)C(=O)c2c(cc(O)c3c2C[C@@H](O)C[C@H]3C)[C@@](C)(O)C1=O
